Data on 30 compounds can be found in patent US7189741B2, “Indolylpiperidine derivatives as antihistaminic and antiallergic agents” (Almirall Prodesfarma S.A., priority 2000, dated 2007).

Assay [1] concerns the target T1, histamine-H1 receptors (Cavia porcellus, UniProt P31389).
T1 construct: performed in guinea pig cerebellum membranes as described previously; from tissue; host or cells: guinea pig cerebellum membranes
Nature of the assay: Histamine-H1 receptor binding assay ([3H]-mepyramine displacement). Set-up: species or system guinea pig. The method, then:
Briefly, the membrane suspensions (160 μg/ml) were incubated at 30° C. with 0.7 nM [^3H]-mepyramine and different concentrations of the test compounds in a final volume of 250 μl. Binding reactions were terminated by filtration after 30 min of incubation and the bound radioactivity was determined. The specific binding was measured in the presence of 10 μM of promethazine. The affinity of each test compound to the receptor was determined by using at least six different concentrations run in duplicate. IC50 values were obtained by non-linear regression by use of SAS on a DEC AXP computer.

The test system of assay [2] is histamine induced skin vascular permeability. Briefly: Histamine-induced skin vascular permeability in rats. The assay is classed as in vivo. To be noted: Rattus norvegicus; male Wistar rats, oral, dose of 1 mg/Kg, 4 hours after administration, vs vehicle treated group. The method, then:
Male Wistar rats (180–210 g) were treated orally with the test compound or vehicle. 1, 4, 8 and 24 hours later, the rats were lightly anaesthetized with ether. The cutaneous reaction was induced by two intradermal injections of 50 μl of histamine (100 μg/ml) onto the back, followed by a intravenous injection of 3 ml/kg of Evan's Blue (5 mg/ml), both dissolved in saline. Sixty min later, the rats were killed by cervical dislocation and the back skin dissected free. The diameter (in millimeters) of the papule was measured in two directions and the area was calculated.

Where [3] appears, read: guinea pig cerebellum membranes, 0.7 nM [3H]-mepyramine, 30 min at 30° C., read-out: Binding to receptor H1 (IC50).

The structures appear in SMILES notation. Read-outs that look alike come from different tables or passages of the source. Where only a bound is given, the exact number is not on record here.

T1 sequence (P31389 whole entry): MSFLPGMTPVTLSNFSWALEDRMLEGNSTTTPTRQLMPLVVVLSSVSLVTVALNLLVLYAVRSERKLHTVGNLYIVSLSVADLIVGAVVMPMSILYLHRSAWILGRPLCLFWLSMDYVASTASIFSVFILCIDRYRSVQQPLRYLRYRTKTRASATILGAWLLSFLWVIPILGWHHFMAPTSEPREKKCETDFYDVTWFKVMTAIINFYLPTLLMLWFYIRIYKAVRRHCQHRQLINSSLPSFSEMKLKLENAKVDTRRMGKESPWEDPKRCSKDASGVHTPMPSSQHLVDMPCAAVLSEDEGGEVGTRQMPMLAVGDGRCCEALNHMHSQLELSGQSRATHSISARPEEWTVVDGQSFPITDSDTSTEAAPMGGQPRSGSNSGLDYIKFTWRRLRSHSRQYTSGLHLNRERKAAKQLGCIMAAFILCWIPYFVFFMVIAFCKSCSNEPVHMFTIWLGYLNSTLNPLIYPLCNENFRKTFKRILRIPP

`O=C(O)c1ccccc1OCCN1CCC(c2cn(CC3OCCO3)c3ccccc23)CC1` [Example 1, 2-{2-[4-(1-[1,3]dioxolan-2-ylmethyl-1H-indol-3-yl)-piperidin-1-yl]-ethoxy}-benzoic acid]: the IC50 in assay [1] (setting [3]) is 0.2 µM.
As to `O=C(O)c1ccccc1OCCN1CCC(c2cn(Cc3ccncc3)c3ccccc23)CC1` [Example 3, 2-{2-[4-(1-pyridin-4-ylmethyl-1H-indol-3-yl)-piperidin-1-yl]-ethoxy}-benzoic acid], the IC50 in assay [1] (setting [3]) is 0.267 µM.
Same read-out and setting: the result for `Cn1ccnc1SCCCn1cc(C2CCN(CCOc3ccccc3C(=O)O)CC2)c2ccccc21` [Example 6, 2-[2-(4-{1-[3-(1-methyl-1H-imidazol-2-ylsulfanyl)-propyl]-1H-indol-3-yl}-piperidin-1-yl)-ethoxy]-benzoic acid] reads 0.463 µM.
On the same count and under the same terms, the result for `O=C(O)c1ccccc1OCCN1CCC(c2cn(Cc3ccco3)c3ccccc23)CC1` [Example 9, 2-{2-[4-(1-furan-2-ylmethyl-1H-indol-3-yl)-piperidin-1-yl]-ethoxy}-benzoic acid] reads 0.098 µM; that for `O=C(O)c1ccccc1OCCN1CCC(c2cn(Cc3ccsc3)c3ccccc23)CC1` [Example 11, 2-{2-[4-(1-thiophen-3-ylmethyl-1H-indol-3-yl)-piperidin-1-yl]-ethoxy}-benzoic acid], 0.4 µM; that for `O=C(O)c1ccccc1OCCN1CCC(c2cn(CCc3cccs3)c3ccccc23)CC1` [Example 12, 2-(2-{4-[1-(2-thiophen-2-yl-ethyl)-1H-indol-3-yl]-piperidin-1-yl}-ethoxy)-benzoic acid], 0.043 µM.
As to `O=C(O)c1ccccc1OCCN1CCC(c2cn(CCc3ccsc3)c3ccccc23)CC1` [Example 13, 2-(2-{4-[1-(2-thiophen-3-yl-ethyl)-1H-indol-3-yl]-piperidin-1-yl}-ethoxy)-benzoic acid], in assay [1] (setting [3]), the IC50 was 0.059 µM.
`O=C(O)c1ccccc1OCCN1CCC(c2cn(CCCOc3ccc4c(c3)OCO4)c3ccccc23)CC1` [Example 16, 2-[2-(4-{1-[3-(benzo[1,3]dioxol-5-yloxy)propyl]-1H-indol-3-yl}piperidin-1-yl)ethoxy]benzoic acid]: the IC50 in assay [1] (setting [3]) is 0.078 µM.
Regarding `O=C(O)c1ccccc1OCCN1CCC(c2cn(Cc3ccc(Cl)s3)c3ccccc23)CC1` [Example 19, 2-(2-{4-[1-(5-chloro-thiophen-2-ylmethyl)-1H-indol-3-yl]-piperidin-1-yl}-ethoxy)-benzoic acid], in assay [1] (setting [3]), the IC50 is 0.12 µM.
`O=C(O)c1ccccc1OCCN1CCC(c2cn(CCCC3OCCO3)c3ccccc23)CC1` [Example 21, 2-(2-{4-[1-(3-[1,3]dioxolan-2-yl-propyl)-1H-indol-3-yl]-piperidin-1-yl}-ethoxy)-benzoic acid]: the IC50 in assay [1] (setting [3]) stood at 0.295 µM.
With `O=C(O)c1ccccc1OCCN1CCC(c2cn(Cc3ccco3)c3cc(F)ccc23)CC1` [Example 22, 2-{2-[4-(6-fluoro-1-furan-2-ylmethyl-1H-indol-3-yl)-piperidin-1-yl]-ethoxy}-benzoic acid], the inhibition in vivo at 1 mg/kg in assay [2] is more than 50%.
Consider `O=C(O)c1ccccc1OCCN1CCC(c2cn(CCC3OCCO3)c3ccccc23)CC1` [Example 23, 2-(2-{4-[1-(2-[1,3]dioxolan-2-yl-ethyl)-1H-indol-3-yl]-piperidin-1-yl}-ethoxy)-benzoic acid], for which the 50% inhibitory concentration (IC50) in assay [1] (setting [3]) worked out at 0.354 µM. Besides, in assay [2], the inhibition in vivo at 1 mg/kg was more than 50%.
`O=C(O)c1ccccc1OCCN1CCC(c2cn(CCC3OCCO3)c3cc(F)ccc23)CC1` [Example 24, 2-(2-{4-[1-(2-[1,3]dioxolan-2-yl-ethyl)-6-fluoro-1H-indol-3-yl]-piperidin-1-yl}-ethoxy)-benzoic acid]: the half-inhibitory concentration (IC50) in assay [1] (setting [3]) came to 0.051 µM. In assay [2], this compound yielded an inhibition in vivo at 1 mg/kg of more than 50%.
As to `O=C(O)c1cccc(CN2CCC(c3cn(Cc4cccs4)c4ccccc34)CC2)c1` [Example 25, 3-[4-(1-thiophen-2-ylmethyl-1H-indol-3-yl)-piperidin-1-ylmethyl]-benzoic acid], the IC50 in assay [1] (setting [3]) was determined as 0.09 µM.
As to `O=C(O)c1cccc(CN2CCC(c3cn(CCC4OCCO4)c4ccccc34)CC2)c1` [Example 28, 3-{4-[1-(2-[1,3]dioxolan-2-yl-ethyl)-1H-indol-3-yl]-piperidin-1-ylmethyl}-benzoic acid], the half-maximal inhibitory concentration (IC50) in assay [1] (setting [3]) is 0.205 µM.
The same measure, in the same setting: with `O=C(O)c1cc(CN2CCC(c3cn(CCCOc4ccc5c(c4)OCO5)c4ccccc34)CC2)ccc1F` [Example 50, 5-(4-{1-[3-(benzo[1,3]dioxol-5-yloxy)-propyl]-1H-indol-3-yl}-piperidin-1-ylmethyl)-2-fluoro-benzoic acid] the figure was 0.155 µM; with `COc1ccc(CN2CCC(c3cn(CCc4cccs4)c4cc(F)ccc34)CC2)cc1C(=O)O` [Example 69, 5-{4-[6-fluoro-1-(2-thiophen-2-yl-ethyl)-1H-indol-3-yl]-piperidin-1-ylmethyl}-2-methoxy-benzoic acid], 0.135 µM.
Consider `COc1ccc(CN2CCC(c3cn(Cc4cccs4)c4ccccc34)CC2)cc1C(=O)O` [Example 73, 2-methoxy-5-[4-(1-thiophen-2-ylmethyl-1H-indol-3-yl)-piperidin-1-ylmethyl]-benzoic acid], for which, in assay [1] (setting [3]), the concentration for half-maximal inhibition (IC50) was 0.125 µM. The compound also registered an inhibition in vivo at 1 mg/kg in assay [2] of more than 50%.
For `COc1ccc(CN2CCC(c3cn(CCc4ccsc4)c4ccccc34)CC2)cc1C(=O)O` [Example 75, 2-methoxy-5-{4-[1-(2-thiophen-3-yl-ethyl)-1H-indol-3-yl]-piperidin-1-ylmethyl}-benzoic acid], in that order: 0.052 µM and more than 50%.
For the compound `O=C(O)c1ccccc1OCCN1CCC(c2cn(CCOc3ccc4c(c3)OCO4)c3ccccc23)CC1` [Example 77, 2-[2-(4-{1-[2-(benzo[1,3]dioxol-5-yloxy)-ethyl]-1H-indol-3-yl}-piperidin-1-yl)-ethoxy]-benzoic acid], in assay [1] (setting [3]), the concentration for half-maximal inhibition (IC50) was 0.116 µM.
In assay [1], `COc1ccc(CN2CCC(c3cn(CCc4ccsc4)c4cc(F)ccc34)CC2)cc1C(=O)O` [Example 78, 5-{4-[6-fluoro-1-(2-thiophen-3-yl-ethyl)-1H-indol-3-yl]-piperidin-1-ylmethyl}-2-methoxy-benzoic acid] showed a 50% inhibitory concentration (IC50) of 0.065 µM. Further, the inhibition in vivo at 1 mg/kg in assay [2] was more than 50%.
As to `COc1ccc(CN2CCC(c3cn(Cc4ccc(Cl)s4)c4cc(F)ccc34)CC2)cc1C(=O)O` [Example 79, 5-{4-[1-(5-chloro-thiophen-2-ylmethyl)-6-fluoro-1H-indol-3-yl]-piperidin-1-ylmethyl}-2-methoxy-benzoic acid], the IC50 in assay [1] (setting [3]) turned out to be 0.15 µM. The inhibition in vivo at 1 mg/kg in assay [2] was more than 50%.
For `COc1ccc(CN2CCC(c3cn(Cc4ccoc4)c4cc(F)ccc34)CC2)cc1C(=O)O` [Example 80, 5-[4-(6-fluoro-1-furan-3-ylmethyl-1H-indol-3-yl)-piperidin-1-ylmethyl]-2-methoxy-benzoic acid], in that order: 0.096 µM and more than 50%.
Take `COc1ccc(CN2CCC(c3cn(Cc4cccs4)c4cc(F)ccc34)CC2)cc1C(=O)O` [Example 82, 5-[4-(6-fluoro-1-thiophen-2-ylmethyl-1H-indol-3-yl)-piperidin-1-ylmethyl]-2-methoxy-benzoic acid]: the IC50 in assay [1] (setting [3]) came to 0.091 µM. The compound further displayed an inhibition in vivo at 1 mg/kg in assay [2] of more than 50%.
Take `COc1ccc(CN2CCC(c3cn(Cc4ccco4)c4ccccc34)CC2)cc1C(=O)O` [Example 85, 5-[4-(1-furan-2-ylmethyl-1H-indol-3-yl)-piperidin-1-ylmethyl]-2-methoxy-benzoic acid]: the IC50 in assay [1] (setting [3]) came out at 0.101 µM. The inhibition in vivo at 1 mg/kg in assay [2] was more than 50%.
For `COc1ccc(CN2CCC(c3cn(Cc4ccoc4)c4ccccc34)CC2)cc1C(=O)O` [Example 86, 5-[4-(1-furan-3-ylmethyl-1H-indol-3-yl)-piperidin-1-ylmethyl]-2-methoxy-benzoic acid], in that order: 0.155 µM and more than 50%.
Turning to `COc1ccc2c(c1)c(C1CCN(CCOc3ccccc3C(=O)O)CC1)cn2CCc1ccsc1` [Example 88, 2-(2-{4-[5-methoxy-1-(2-thiophen-3-yl-ethyl)-1H-indol-3-yl]-piperidin-1-yl}-ethoxy)-benzoic acid], the IC50 in assay [1] (setting [3]) was 0.051 µM.
The same measure, in the same setting: the result for `O=C(O)c1cccc(CN2CCC(c3cn(Cc4ccco4)c4cc(F)ccc34)CC2)c1` [Example 96, 3-[4-(6-fluoro-1-furan-2-ylmethyl-1H-indol-3-yl)-piperidin-1-ylmethyl]-benzoic acid] reads 0.107 µM.
Same read-out and setting: the result for `O=C(O)c1ccccc1OCCN1CCC(c2cn(CCc3ccsc3)c3cc(F)ccc23)CC1` [Example 110, 2-(2-{4-[6-fluoro-1-(2-thiophen-3-yl-ethyl)-1H-indol-3-yl]-piperidin-1-yl}-ethoxy)-benzoic acid] reads 0.023 µM.
For the compound `O=C(O)c1ccccc1OCCN1CCC(c2cn(Cc3ccoc3)c3cc(F)ccc23)CC1` [Example 112, 2-{2-[4-(6-fluoro-1-furan-3-ylmethyl-1H-indol-3-yl)-piperidin-1-yl]-ethoxy}-benzoic acid], in assay [1] (setting [3]), the IC50 stood at 0.031 µM.
